pIC50: −log10 of the molar value. In brackets after ≈: the same amount, converted by molar mass.
How the values were obtained:
cyclooxygenase = molecular target: T1, cyclooxygenase (Ovis aries, UniProt P05979); assay: activity of cyclooxygenase in sheep seminal vesicle microsomes ([14C]-arachidonic acid, TLC); assay type: biochemical; settings: potassium phosphate buffer pH 7.0
T1 sequence (P05979 25-600): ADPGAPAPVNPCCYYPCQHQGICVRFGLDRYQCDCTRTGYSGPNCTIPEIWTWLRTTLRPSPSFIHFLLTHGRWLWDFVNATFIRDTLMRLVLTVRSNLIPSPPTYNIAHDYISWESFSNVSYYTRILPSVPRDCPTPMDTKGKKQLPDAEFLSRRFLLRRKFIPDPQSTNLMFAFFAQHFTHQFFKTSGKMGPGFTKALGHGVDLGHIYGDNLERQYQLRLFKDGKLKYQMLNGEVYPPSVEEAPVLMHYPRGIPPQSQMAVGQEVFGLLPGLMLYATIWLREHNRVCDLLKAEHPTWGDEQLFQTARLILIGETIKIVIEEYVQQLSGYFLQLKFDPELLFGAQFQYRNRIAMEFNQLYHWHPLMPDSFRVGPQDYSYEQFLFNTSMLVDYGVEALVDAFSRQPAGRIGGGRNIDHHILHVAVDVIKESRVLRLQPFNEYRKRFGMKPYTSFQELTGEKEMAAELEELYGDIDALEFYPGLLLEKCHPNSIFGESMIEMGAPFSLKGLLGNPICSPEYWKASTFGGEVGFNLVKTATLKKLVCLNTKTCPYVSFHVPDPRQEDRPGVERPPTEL
Protocol: The effect of the acetohydroxamic acid compound of formula I on the activity of cyclooxygenase was tested using a suspension of sheep seminal vesicle microsomes in […] of potassium phosphate buffer of pH 7.0 which was incubated either with N-hydroxy-N-(thien-3-yl)methyl-acetamide or with a solvent only and [^14 C]-arachidonic acid. The IC50 values, i.e. the concentrations causing an inhibition of 50% of cyclooxygenase were determined by thin layer chromatography using a TLC-linear-analyzer.

toxicity = settings: observed only at far higher doses than therapeutic or prophylactic doses
5-lipoxygenase = assay: ex vivo iLTB4-formation in whole blood of rats after oral administration (bioavailability); set-up: species or system rat (Wistar strain, male)
Protocol: The bioavailability of the compound of formula I was characterized by means of an ex vivo biochemical assessment method described by Tateson et al. in Brit. J. Pharmacol. 528 (1988): N-Hydroxy-N-(thien-3-yl)methyl-acetamide was orally administered in a dose of 21.5 mg/kg to male rats (Wistar strain). One hour later blood was taken from the rats in lethal CO2 -narcosis. Aliquots of the blood were incubated for 30 minutes at 37° C. in a water bath with addition of calcium ionophore A 23 187 to an end concentration of 15 μg/ml. At the end of the incubation the samples were centrifuged to collect the cell free plasma. The concentration of the immunoreactive LTB4 (iLTB4 ng/ml) in each plasma sample was determined by radioimmunoassay (^3 H-LTB4 -RIA, Amersham) by means of a LTB4 -standard curve in diluted rat plasma. To determine the percent inhibition of ex vivo iLTB4 -formation in whole blood of rats treated with the compound of formula I, rats orally treated with an appropriate vehicle solution were included in all experiments, aliquots of their blood were run in parallel and were processed in the same manner as described. The mean iLTB4 formation per ml plasma of these vehicle treated rats served as the 100% value of normal 5-lipoxygenase activity. The percent inhibition of the ex vivo iLTB4 -formation after oral administration of the compound of formula I was calculated according to the following formula: […]
where Q represents the mean iLTB4 content in ng […] per ml plasma of the rats treated with the compound of formula I and C represents the mean iLTB4 content in ng iLTB4 per ml plasma of rats treated only with the vehicle.

5 lipoxygenase = molecular target: T2, 5 lipoxygenase (Homo sapiens, UniProt P09917); assay: inhibition of 5 lipoxygenase in human blood (A23187-induced iLTB4 formation, RIA); assay type: cell-based; settings: heparinized human blood, A23187 15 μg/ml, 30 minutes at 37° C., iLTB4 by RIA; read-out: IC50-value, concentration causing an inhibition of 50% of 5 lipoxygenase
T2 construct: endogenous in cells; host or cells: freshly drawn, heparinized human whole blood (blood leukocytes; the cell type is own knowledge)
T2 sequence (P09917 1-674): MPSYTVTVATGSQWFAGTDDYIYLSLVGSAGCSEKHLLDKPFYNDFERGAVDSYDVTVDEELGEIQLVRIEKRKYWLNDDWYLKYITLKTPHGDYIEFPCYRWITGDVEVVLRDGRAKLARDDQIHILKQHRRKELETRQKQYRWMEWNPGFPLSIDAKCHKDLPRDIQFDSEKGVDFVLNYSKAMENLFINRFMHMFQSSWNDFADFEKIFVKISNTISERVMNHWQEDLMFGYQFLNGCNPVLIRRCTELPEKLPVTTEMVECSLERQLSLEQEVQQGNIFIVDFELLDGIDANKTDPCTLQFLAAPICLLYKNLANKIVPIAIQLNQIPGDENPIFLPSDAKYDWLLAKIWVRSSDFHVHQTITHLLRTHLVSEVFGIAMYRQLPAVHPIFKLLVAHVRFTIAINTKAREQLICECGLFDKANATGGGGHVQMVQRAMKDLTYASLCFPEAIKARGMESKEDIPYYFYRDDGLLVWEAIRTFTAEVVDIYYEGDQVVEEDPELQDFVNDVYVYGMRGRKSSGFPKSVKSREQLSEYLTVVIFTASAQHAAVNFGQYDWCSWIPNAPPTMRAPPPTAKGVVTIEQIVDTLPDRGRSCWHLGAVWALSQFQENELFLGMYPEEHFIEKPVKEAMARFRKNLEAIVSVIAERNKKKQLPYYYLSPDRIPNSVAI
Protocol: To determine the inhibition of 5 lipoxygenase, aliquots of freshly drawn, heparinized human blood were incubated at 37° C. in a water bath with addition of either N Hydroxy-N-(thien-3-yl)methyl-acetamide in different concentrations or a solvent. After 5 minutes the calcium ionophore A23187 was added to an end concentration of 15 μg/ml blood, and the incubation was continued for 30 minutes at 37° C. Then the samples were centrifuged to collect the cell free plasma. The content of the immunoreactive leucotriene B4 (iLTB4), in each sample was determined by radioimmunoassay "RIA" (^3 H-LTB4 -RIA, Amersham) with reference to a LTB4 standard curve and was calculated as ng iLTB4 /ml plasma. The percentage inhibition caused by the acetohydroxamic acid compound of formula I at various concentrations was calculated in comparison to the aliquots incubated with solvent only. N-hydroxy-N-(thien-3-yl)methyl-acetamide has an IC50 -value, i.e. the concentration causing an inhibition of 50% of 5 lipoxygenase, of 0.3 μmolar.

[1] = system: isolated tracheal strips of guinea pigs; assay: anti-anaphylactic effect: ovalbumin-induced anaphylactic constrictions of isolated tracheal strips; assay type: cell-based, guinea pig; settings: Cavia porcellus; tracheal strips of actively sensitized guinea pigs, with mepyramine and indomethacin, 37° C.; Example 3 based on the complexed N-hydroxy-N-(thien-3-yl)methyl-acetamide content; read-out: IC50-value, inhibition of 50% of the anaphylactic constrictions
Protocol: The anti-anaphylactic effect of N-hydroxy-[…])methyl-acetamide was tested using an in vitro model. […] The organs were connected to isometric force transducers. After incubation with mepyramine (elimination of histamine) and indomethacin (inhibition of cyclooxygenase resulting in an increase of the anaphylactic reaction) ovalbumin was added to the organ bath in cumulatively increasing concentrations. The resulting anaphylactic constrictions were inhibited by N-hydroxy-[…])methyl-acetamide which was added to the organ bath before the anaphylactic constrictions were elicited.

solubility = assay type: physicochemical
guinea pigs = assay: antiasthmatic effect: ovalbumin-induced bronchoconstriction in anesthetized, ventilated, passively sensitized guinea pigs (Konzett-Roessler); assay type: in vivo, guinea pig
Protocol: The antiasthmatic effect of the compound according to the invention was tested in anesthetized and ventilated guinea pigs. In order to induce an asthmatic reaction, the animals were passively sensitized with a single intraperitoneal injection of antiovalbumin serum. After 48 hours the asthmatic reaction was elicited by intravenous challenge with 0.2 mg/kg of ovalbumin. The immediately resulting bronchoconstriction was measured as an increase in overflow according to the Konzett-Roessler method for a period of 10 minutes (Naunyn Schiedeberg's Arch. Exp. Path. Pharma. Vol. 195, 71-74 (1940)). Effects caused by histamine, serotonin and sympathic counterreaction were eliminated by intravenous pretreatment with 2.15 mg/kg of mepyramine, […] of propranolol, 4.64 mg/kg of atropine and 1 mg/kg of methysergide, all given 5 minutes before challenge. N-Hydroxy-N-(thien-3-yl)methyl-acetamide was orally administered 60 minutes before, intravenously administered 30 minutes before, and locally administered 2 minutes before the administration of ovalbumin.

cell-free 5 lipoxygenase = assay: 5 lipoxygenase activity polarographically measured in 10,000×g supernatant of homogenized rat basophilic leukemia cells; release from complex; assay type: biochemical; settings: RBL 10,000×g supernatant, arachidonic acid 75 μM, 5 minutes at 35° C.; complex of Example 3 versus free compound
Protocol: To determine the rate and the extent of the release of N hydroxy-[…])methyl-acetamide from the complex prepared according to Example 3, the 5 lipoxygenase activity of cell-free 5 lipoxygenase was polarographically measured with oxygen electrodes in 10,000×g supernatant from homogenized rat basophilic leukemia cells (RBL i cells). After incubation of the 10,000×g supernatant with arachidonic acid (75 μM), adenosine triphosphate (4 mM), glutathione (4 mM), and either N hydroxy-[…])methyl-acetamide or a solvent for 5 minutes at 35° C., the lipoxygenase reaction was initiated by addition of calcium chloride and plotted simultaneously. The evaluation included the duration of the lag-phase as well as the initial rate of the reaction after the lag-phase. […] A significant amount of the acetohydroxamic acid compound is fully available in the biological test system even when the compound is originally administered in the form of a complex.

CC(=O)N(O)Cc1ccsc1 [Example 1, N-hydroxy-N-(thien-3-yl)methyl-acetamide]
IC50-values for the inhibition of cyclooxygenase compared with IC50-values for 5-lipoxygenase (cyclooxygenase): significantly higher than the IC50 -values for the inhibition of 5-lipoxygenase
degree of toxicity (toxicity): low degree of toxicity
percent inhibition of the ex vivo iLTB4-formation (5-lipoxygenase; 21.5 mg/kg oral, male Wistar rats, blood taken one hour later, A23187 15 μg/ml): 95%
oral availability (5-lipoxygenase; oral, 21.5 mg/kg, rats, concluded from ex vivo iLTB4 inhibition): excellent oral availability
calculated dose with a semi-maximum inhibiting effect after oral administration (5-lipoxygenase; oral, rats, ex vivo iLTB4-formation, 60 min): 5.6 mg/kg
pIC50 (5 lipoxygenase): 6.52
pIC50 [1]: 4.99
solubility (solubility; organic solvent or mixture, water/ethanol 4:1 mixture): 3000 µg/mL (≈ 17.5 mM)
solubility (solubility; phosphate buffer/ethanol 4:1, organic solvent or mixture, phosphate buffer (pH 7.4)/ethanol, 4:1 mixture): 3000 µg/mL (≈ 17.5 mM)
inhibition of bronchoconstriction (guinea pigs; 21.5 mg/kg oral, 60 minutes before ovalbumin): 42%
resorption of the acetohydroxamic acid compound (guinea pigs; oral 21.5 mg/kg (free) versus intravenous 21.5 mg/kg (complex), guinea pigs): high resorption
inhibition of the 5 lipoxygenase reaction (cell-free 5 lipoxygenase): comparable effects
prolongation of the lag-phase of the 5 lipoxygenase reaction (cell-free 5 lipoxygenase): comparable effects

From patent publication US5252562A, “Acetohydroxamic compound and complexes pharmaceutical compositions containing them and processes of preparation and use” (Gruenenthal GmbH, priority 1991, dated 1993)
